Laboratory results reported in patent publication US10167262B2, “Herbicidal substituted 3-arylpyrazoles” (FMC CORPORATION, priority 2014, dated 2019).

Key:
Assay in all cases: Test E pre-/postemergence greenhouse test, plant response rating 0-100
Type in all cases: in vivo
[1] = test system: Brazilian crabgrass (Digitaria horizontalis); settings: Postemergence, scale 0 to 100
Procedure, shortened: (§1)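 Rated visually against controls 14-21 days after treatment on a 0-100 scale (100 = complete control). Pre- and postemergence sprays used a non-phytotoxic solvent mixture with surfactant. Preemergence seeds were in silt loam; postemergence plants were in peat-based medium at the 1- to 4-leaf stage (2-18 cm).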

[2] = test system: arrowleaf sida (Sida rhombifolia); settings: Postemergence
Procedure, shortened: as §1

corn (Zea mays) = settings: Postemergence, scale 0 to 100
Procedure, shortened: as §1

[3] = test system: dayflower (Virginia (VA) dayflower, Commelina virginica); settings: Postemergence, scale 0 to 100
Procedure, shortened: as §1

[4] = test system: fall panicum (Panicum dichotomiflorum); settings: Postemergence, scale 0 to 100
Procedure, shortened: as §1

[5] = test system: field bindweed (Convolvulus arvensis); settings: Postemergence, scale 0 to 100
Procedure, shortened: as §1

[6] = test system: hairy beggarticks (Bidens pilosa); settings: Postemergence, scale 0 to 100
Procedure, shortened: as §1

[7] = test system: palmer pigweed (Amaranthus palmeri); settings: Postemergence, scale 0 to 100
Procedure, shortened: as §1

[8] = test system: sandbur (southern sandbur, Cenchrus echinatus); settings: Postemergence, scale 0 to 100
Procedure, shortened: as §1

soybean (Glycine max) = settings: Postemergence, scale 0 to 100
Procedure, shortened: as §1

[9] = test system: waterhemp (common waterhemp, Amaranthus rudis); settings: Postemergence, scale 0 to 100
Procedure, shortened: as §1

[10] = test system: wild poinsettia (Euphorbia heterophylla); settings: Postemergence, scale 0 to 100
Procedure, shortened: as §1

Cn1cc(C(=O)c2cccs2)c(-c2cc(Cl)cc(Cl)c2)n1 [Compound 17]
Plant response rating, Crabgrass, Brazil ([1]; 31 g ai/ha): 0
Plant response rating, Crabgrass, Brazil ([1]; 62 g ai/ha): 0
Plant response rating, Crabgrass, Brazil ([1]; 125 g ai/ha): 0
Plant response rating, Crabgrass, Brazil ([1]; 250 g ai/ha): 0
Plant response rating, Crabgrass, Brazil ([1]; 500 g ai/ha): 15
Plant response rating, Arrowleaf Sida ([2]; 31 g ai/ha, scale 0 to 100): 60
Plant response rating, Arrowleaf Sida ([2]; 62 g ai/ha, scale 0 to 100): 70
Plant response rating, Arrowleaf Sida ([2]; 125 g ai/ha, scale 0 to 100): 75
Plant response rating, Arrowleaf Sida ([2]; 250 g ai/ha, scale 0 to 100): 80
Plant response rating, Arrowleaf Sida ([2]; 500 g ai/ha, scale 0 to 100 (0 no effect, 100 complete control)): 85
Plant response rating, Corn (corn (Zea mays); 31 g ai/ha): 0
Plant response rating, Corn (corn (Zea mays); 62 g ai/ha): 0
Plant response rating, Corn (corn (Zea mays); 125 g ai/ha): 0
Plant response rating, Corn (corn (Zea mays); 250 g ai/ha): 0
Plant response rating, Corn (corn (Zea mays); 500 g ai/ha): 0
Plant response rating, Dayflower, VA ([3]; 31 g ai/ha): 0
Plant response rating, Dayflower, VA ([3]; 62 g ai/ha): 0
Plant response rating, Dayflower, VA ([3]; 125 g ai/ha): 0
Plant response rating, Dayflower, VA ([3]; 250 g ai/ha): 0
Plant response rating, Dayflower, VA ([3]; 500 g ai/ha): 0
Plant response rating, Panicum, Fall ([4]; 31 g ai/ha): 0
Plant response rating, Panicum, Fall ([4]; 62 g ai/ha): 0
Plant response rating, Panicum, Fall ([4]; 125 g ai/ha): 0
Plant response rating, Panicum, Fall ([4]; 250 g ai/ha): 0
Plant response rating, Panicum, Fall ([4]; 500 g ai/ha): 0
Plant response rating, Field Bindweed ([5]; 31 g ai/ha): 0
Plant response rating, Field Bindweed ([5]; 62 g ai/ha): 10
Plant response rating, Field Bindweed ([5]; 125 g ai/ha): 20
Plant response rating, Field Bindweed ([5]; 250 g ai/ha): 30
Plant response rating, Field Bindweed ([5]; 500 g ai/ha): 30
Plant response rating, Beggarticks ([6]; 31 g ai/ha): 5
Plant response rating, Beggarticks ([6]; 62 g ai/ha): 25
Plant response rating, Beggarticks ([6]; 125 g ai/ha): 35
Plant response rating, Beggarticks ([6]; 250 g ai/ha): 40
Plant response rating, Beggarticks ([6]; 500 g ai/ha): 60
Plant response rating, Pigweed, Palmer ([7]; 31 g ai/ha): 60
Plant response rating, Pigweed, Palmer ([7]; 62 g ai/ha): 70
Plant response rating, Pigweed, Palmer ([7]; 125 g ai/ha): 80
Plant response rating, Pigweed, Palmer ([7]; 250 g ai/ha): 85
Plant response rating, Pigweed, Palmer ([7]; 500 g ai/ha): 95
Plant response rating, Sandbur ([8]; 31 g ai/ha): 0
Plant response rating, Sandbur ([8]; 62 g ai/ha): 0
Plant response rating, Sandbur ([8]; 125 g ai/ha): 0
Plant response rating, Sandbur ([8]; 250 g ai/ha): 0
Plant response rating, Sandbur ([8]; 500 g ai/ha): 10
Plant response rating, Soybean (soybean (Glycine max); 31 g ai/ha): 0
Plant response rating, Soybean (soybean (Glycine max); 62 g ai/ha): 0
Plant response rating, Soybean (soybean (Glycine max); 125 g ai/ha): 0
Plant response rating, Soybean (soybean (Glycine max); 250 g ai/ha): 15
Plant response rating, Soybean (soybean (Glycine max); 500 g ai/ha): 20
Plant response rating, Waterhemp ([9]; 31 g ai/ha): 50
Plant response rating, Waterhemp ([9]; 62 g ai/ha): 80
Plant response rating, Waterhemp ([9]; 125 g ai/ha): 85
Plant response rating, Waterhemp ([9]; 250 g ai/ha): 90
Plant response rating, Waterhemp ([9]; 500 g ai/ha): 95
Plant response rating, Poinsettia, Wild ([10]; 31 g ai/ha): 0
Plant response rating, Poinsettia, Wild ([10]; 62 g ai/ha): 0
Plant response rating, Poinsettia, Wild ([10]; 125 g ai/ha): 0
Plant response rating, Poinsettia, Wild ([10]; 250 g ai/ha): 20
Plant response rating, Poinsettia, Wild ([10]; 500 g ai/ha): 30

COC(OC)(c1ccccc1)c1c[nH]nc1-c1cc(Cl)cc(Cl)c1 [Compound 13, 3-(3,5-dichlorophenyl)-4-(dimethoxyphenylmethyl)-1H-pyrazole]
pest or weed control at 125 g/ha ([1]; Digitaria horizontalis, post-emergence, 125 g ai/ha, read-out: Plant response rating, Crabgrass, Brazil): 0%
pest or weed control at 500 g/ha ([1]; Digitaria horizontalis, post-emergence, 500 g ai/ha, read-out: Plant response rating, Crabgrass, Brazil): 0%
pest or weed control at 125 g/ha ([2]; Sida rhombifolia, post-emergence, 125 g ai/ha, scale 0 to 100): 80%
pest or weed control at 500 g/ha ([2]; Sida rhombifolia, post-emergence, 500 g ai/ha, scale 0 to 100 (0 no effect, 100 complete control)): 90%
Corn plant response rating (crop injury, 0 = no effect, 100 = complete kill) at 125 g/ha (corn (Zea mays); Zea mays, post-emergence, 125 g ai/ha): 0%
Corn plant response rating (crop injury, 0 = no effect, 100 = complete kill) at 500 g/ha (corn (Zea mays); Zea mays, post-emergence, 500 g ai/ha): 0%
pest or weed control at 125 g/ha ([3]; Commelina virginica, post-emergence, 125 g ai/ha): 10%
pest or weed control at 500 g/ha ([3]; Commelina virginica, post-emergence, 500 g ai/ha): 10%
pest or weed control at 125 g/ha ([4]; Panicum dichotomiflorum, post-emergence, 125 g ai/ha): 0%
pest or weed control at 500 g/ha ([4]; Panicum dichotomiflorum, post-emergence, 500 g ai/ha): 0%
pest or weed control at 125 g/ha ([5]; Convolvulus arvensis, post-emergence, 125 g ai/ha): 0%
pest or weed control at 500 g/ha ([5]; Convolvulus arvensis, post-emergence, 500 g ai/ha): 10%
pest or weed control at 125 g/ha ([6]; Bidens pilosa, post-emergence, 125 g ai/ha): 60%
pest or weed control at 500 g/ha ([6]; Bidens pilosa, post-emergence, 500 g ai/ha): 90%
pest or weed control at 125 g/ha ([7]; Amaranthus palmeri, post-emergence, 125 g ai/ha): 85%
pest or weed control at 500 g/ha ([7]; Amaranthus palmeri, post-emergence, 500 g ai/ha): 95%
pest or weed control at 125 g/ha ([8]; Cenchrus echinatus, post-emergence, 125 g ai/ha): 0%
pest or weed control at 500 g/ha ([8]; Cenchrus echinatus, post-emergence, 500 g ai/ha): 0%
plant injury at 125 g/ha (soybean (Glycine max); Glycine max, post-emergence, 125 g ai/ha): 0%
plant injury at 500 g/ha (soybean (Glycine max); Glycine max, post-emergence, 500 g ai/ha): 0%
pest or weed control at 125 g/ha ([9]; Amaranthus tuberculatus, post-emergence, 125 g ai/ha): 90%
pest or weed control at 500 g/ha ([9]; Amaranthus tuberculatus, post-emergence, 500 g ai/ha): 95%
pest or weed control at 125 g/ha ([10]; Euphorbia heterophylla, post-emergence, 125 g ai/ha, read-out: Plant response rating, Poinsettia, Wild): 0%
pest or weed control at 500 g/ha ([10]; Euphorbia heterophylla, post-emergence, 500 g ai/ha, read-out: Plant response rating, Poinsettia, Wild): 0%
